Laboratory results reported in publication PMC4627284, “High-throughput simultaneous screen and counterscreen identifies homoharringtonine as synthetic lethal with von Hippel-Lindau loss in renal cell carcinoma” (Oncotarget, 2015).

Key:
[1] = system: VHL-mutant patient-derived ccRCC tumorgraft lines; experiment: ccRCC tumorgraft model, six VHL-mutant tumorgraft lines; format: in vivo, NOD/SCID mice; conditions: 0.5 mg/kg IP once every 48 hours, positive control
Method: We selected 6 independently-derived ccRCC tumorgraft lines that were confirmed to have VHL mutation. The mice (3-5 mice per tumorgraft line) were treated with either HHT (0.7 mg/kg), vehicle (as a negative control), or rapamycin (0.5 mg/kg; as a positive control). In total, 65 tumorgraft bearing mice were evaluated for these experiments in time courses lasting ~28 days, with tumor growth measured every 3 or 4 days.
Figure 3 HHT inhibits tumor growth in a ccRCC tumorgraft model A-F, Tumorgraft lines were treated with vehicle control, HHT (0.7 mg/kg), rapamycin (0.5 mg/kg), (or the combination, where indicated) and tumor growth was measured on the indicated days. Day 0 represents the first day of treatment.
Tumorgrafts were generated and propagated as described previously, with tumor samples implanted subcutaneously into the flank of the mouse for drug trials. Briefly, 4- to 8-week-old NOD/SCID mice were anesthetized with isoflurane and implanted subcutaneously with 64 mm^3 tumor fragments (cohorts 2-20). Once tumors reached an average of at least ~250 mm^3, drug treatment was begun. The mice were treated with vehicle, 0.7 mg/kg homoharringtonine (HHT) via gavage twice daily, or 0.5 mg/kg rapamycin given by IP injection once every 48 hours. Tumor size (volume) was measured twice weekly and was obtained by multiplying tumor length, width, and depth using calipers. To assess toxicity, mouse weight was monitored once weekly.
Sections from tumors were stained with hematoxylin and eosin (H&E) as described previously.

[2] = system: VHL-deficient 786-O cells; experiment: High-throughput simultaneous screen and counterscreen, 1:1 mix of EV^GFP and VHL^mCh 786-O cells, fluorescence imaging; format: cell-based, human; conditions: 2 nM; equally affected VHL-deficient and VHL-reconstituted cells
Description: To identify small molecule compounds synthetic lethal with VHL, we carried out an unbiased cell-based screen of a chemical library of ~12,800 compounds using 786-O cells, an extensively studied cell line derived from a VHL-deficient primary human ccRCC [26]. 786-O cells were stably transfected with either an empty vector (EV) control or reconstituted with an HA-tagged VHL cDNA. […] To distinguish between the two otherwise isogenic cell lines, we transduced the VHL-deficient 786-O cells with a histone H2B-GFP reporter and the VHL-reconstituted cells with an H2B-mCherry reporter. The histone proteins drive the fluorochrome to nuclei facilitating cell identification and segmentation algorithms (Figure 1A and 1B). […]
Figure 1 Screening strategy to identify compounds that are synthetic lethal with VHL A. Schematic diagram of a ~12,800 chemical library synthetic lethal screen. […] Fluorescence imaging (using the BD Pathway 855 imager) was used to identify compounds preferentially depleting VHL-deficient/GFP-positive cells after cells were segmented. B. Left panel: Representative image of fluorescence signal from Hoescht-labeled 786-O cells. Right panel: overlay of GFP fluorescence signal (green; from 786-O EV^GFP cells) and mCherry fluorescence nuclear signal (red; VHL^mCh cells). […] Toxicity was determined as ≤100 VHL^mCh cells per field. […]

SMILES: CO[C@H]1C[C@@H]2CC[C@@H](C)[C@@](O)(O2)C(=O)C(=O)N2CCCC[C@H]2C(=O)O[C@H]([C@H](C)C[C@@H]2CC[C@@H](O)[C@H](OC)C2)CC(=O)[C@H](C)/C=C(\C)[C@@H](O)[C@@H](OC)C(=O)[C@H](C)C[C@H](C)/C=C/C=C/C=C/1C [rapamycin, Rapamycin (sirolimus)]
- response of tumorgraft lines [1]: Most lines responded
- effect on cell proliferation [2]: modestly reduced cell proliferation
